Like-named read-outs stand apart in the source and are kept apart here.
Target: T1, cone CNG channels (CNGA3:CNGB3) (Homo sapiens, UniProt Q16281+Q9NQW8)
T1 construct: expressed in transfected cells; host or cells: Xenopus laevis oocytes (cRNA injection, pGEMHE vector); inside-out patches
T1 sequence (Q16281 1-694): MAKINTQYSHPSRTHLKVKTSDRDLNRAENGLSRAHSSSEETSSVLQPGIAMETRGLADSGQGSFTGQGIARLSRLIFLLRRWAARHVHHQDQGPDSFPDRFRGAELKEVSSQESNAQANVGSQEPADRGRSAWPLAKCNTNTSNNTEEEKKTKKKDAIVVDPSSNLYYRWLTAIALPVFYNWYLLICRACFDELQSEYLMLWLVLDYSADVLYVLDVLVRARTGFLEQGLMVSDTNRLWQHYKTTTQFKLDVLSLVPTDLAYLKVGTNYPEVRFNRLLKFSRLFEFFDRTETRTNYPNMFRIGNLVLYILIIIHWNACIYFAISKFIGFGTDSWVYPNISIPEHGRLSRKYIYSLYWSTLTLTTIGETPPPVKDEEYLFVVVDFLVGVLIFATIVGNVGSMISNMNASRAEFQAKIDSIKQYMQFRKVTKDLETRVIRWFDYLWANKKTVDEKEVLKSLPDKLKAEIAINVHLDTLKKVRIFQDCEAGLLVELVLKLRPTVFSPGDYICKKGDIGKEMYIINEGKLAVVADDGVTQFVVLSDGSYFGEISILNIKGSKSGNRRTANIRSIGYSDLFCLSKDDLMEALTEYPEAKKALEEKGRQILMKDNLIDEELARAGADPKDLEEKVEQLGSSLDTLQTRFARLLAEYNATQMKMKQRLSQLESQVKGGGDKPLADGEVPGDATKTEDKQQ
T1 sequence (Q9NQW8 1-809): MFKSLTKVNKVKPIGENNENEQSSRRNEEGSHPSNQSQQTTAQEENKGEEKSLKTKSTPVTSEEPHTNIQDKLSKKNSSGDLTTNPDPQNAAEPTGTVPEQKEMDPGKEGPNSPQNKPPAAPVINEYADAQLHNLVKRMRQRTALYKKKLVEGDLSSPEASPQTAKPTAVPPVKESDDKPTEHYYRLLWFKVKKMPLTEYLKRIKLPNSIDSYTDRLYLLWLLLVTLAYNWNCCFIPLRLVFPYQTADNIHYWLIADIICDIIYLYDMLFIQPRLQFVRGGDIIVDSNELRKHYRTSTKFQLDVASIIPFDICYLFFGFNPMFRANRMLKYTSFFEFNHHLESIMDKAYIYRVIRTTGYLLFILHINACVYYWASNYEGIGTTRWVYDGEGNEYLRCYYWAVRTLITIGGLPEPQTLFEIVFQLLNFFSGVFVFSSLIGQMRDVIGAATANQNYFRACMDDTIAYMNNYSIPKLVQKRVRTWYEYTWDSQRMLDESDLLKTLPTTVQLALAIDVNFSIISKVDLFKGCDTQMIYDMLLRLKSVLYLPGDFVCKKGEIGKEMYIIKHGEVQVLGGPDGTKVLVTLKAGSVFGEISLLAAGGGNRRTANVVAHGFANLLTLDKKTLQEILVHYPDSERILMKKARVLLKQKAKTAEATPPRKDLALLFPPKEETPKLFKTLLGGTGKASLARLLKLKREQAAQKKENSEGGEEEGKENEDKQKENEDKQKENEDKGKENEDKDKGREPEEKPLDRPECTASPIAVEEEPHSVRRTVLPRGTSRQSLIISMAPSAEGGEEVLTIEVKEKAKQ
Assay: Patch-clamp on inside-out patches, heterotetrameric cone CNG channels expressed in Xenopus laevis oocytes
Assay type: cell-based
Text: The patch pipettes were pulled from borosilicate glass tubing (outer diameter 2.0 mm, inner diameter 1.0 mm; Hilgenberg GmbH, Malsfeld, Germany). The initial resistance of the solution-filled pipettes was 0.6–1.4 MΩ. […] For studying the activation and deactivation kinetics of CNG channels, we performed fast jumps between different ligand concentrations by means of a double-barreled θ-glass pipette mounted on a piezo-driven device, which was controlled by the computer. For measuring the time courses, the recording rate was 20 kHz.
The activation and deactivation time courses were determined by fitting the respective current traces with single exponentials:(3) I(t)=A∗exp[−t/τ] where A is the amplitude, t the time, and τ the time constant for either activation or deactivation.

Structure (SMILES): Nc1nc2c(nc(Sc3ccc(Cl)cc3)n2[C@@H]2O[C@@H]3COP(=O)(O)O[C@H]3[C@H]2O)c(=O)[nH]1 [8-pCPT-cGMP]
- cone CNG-channel activation (0.1 µM): ~ 90%
- potency compared to cGMP, cone channel (higher potency than cGMP): ~ 138 times
- H (Hill coefficient), cone CNG channels (ligand alone): 1.74
- EC50 (ligand alone, concentration-activation relationship, Hill fit, read-out: EC50, cone CNG channels): 0.08 µM

Structure (SMILES): O=c1c2nc(Br)n([C@@H]3O[C@@H]4CO[P@@](=O)(S)O[C@H]4[C@H]3O)c2nc2[nH]c(-c3ccccc3)cn12 [Rp-8-Br-PET-cGMPS]
- EC50: 4.4 µM
- decrease in the apparent affinity of cone CNG channels (50 µM analogue): ~ 3.2 fold
- H (Hill coefficient), cone CNG channels (cGMP + 50 µM of the cGMP analogue): 1.97

From article PMC9612005 (Pharmaceutics, 2022)
